According to patent US7659242B2, “Composition comprising protein material and compounds comprising non-oxidizable fatty acid entities” (Thia Medica AS, priority 2004, dated 2010):

Assays:
[1] = degradation time in vivo of ω-oxidation blocked analogue
Text: ω-oxidation is believed to be the main pathway for degradation of the fatty acid entities as described with a block in the X position. Experiments were thus performed where R′ was changed to block ω-oxidation, by introducing a triple bond at the methyl end of the fatty acid analogue. […] This is important for the use of the fatty acid entities in pharmaceutical preparation, as it may potentiate the effects of the β-oxidizable fatty acid entities by further slowing down their breakdown.

[2] = system: mitochondrial β-oxidation in the liver; experiment: activity of mitochondrial β-oxidation in the liver of fatty acid analogues; type: biochemical
Text: Although all fatty acid anagoges with an odd positioning of the β-oxidation blocker X away from the carboxylic end block β-oxidation, the extent of their biological effect may be variable. This is due to the difference in biological degradation time of the various compounds. The inventors have done experiments to show the effect of moving X further from the carboxylic fatty acid end. In these experiments the activity (in nmol/min/mg/protein) of mitochondrial β-oxidation in the liver of fatty acid analogues was measured with sulphur in the 3, 5 and 7 positions relative to the carboxyl end. The activities were 0.81 for sulphur in the 3rd position, 0.61 for sulphur in the 5th position, 0.58 for sulphur in the 7th position, and 0.47 for palmitic acid, the non β-oxidation blocking control. […] However, as the decline is great for going from the 3rd to 5th position, but small going from the 5th to 7th position, it is reasonable to assume that this decline will continue to be less as one moves out the chain and thus that it will be very far out indeed before no effect (compared to the control) is seen at all.

Row | SMILES | degradation time in vivo [1] | activity of mitochondrial β-oxidation in the liver [2] [nmol/min/mg/protein]
1 | CC#CCCCCCCCCCCCSCC [3-thia-15-heptadecyn] | substantially increased degradation time in vivo | –
2 | CCCCCCCCCCCCCCCC(=O)O [palmitic acid] | – | 0.47
